This note sets out measurements from US20090137572A1, “2-substituted-4-heteroaryl-pyrimidines useful for the treatment of proliferative disorders” (priority 2004, published 2009).

Holding throughout (assay type): biochemical
In test [1] the target is CDK2-cyclin A (Homo sapiens, UniProt P24941). Briefly: Kinase assay (radioactive phosphate incorporation), CDK2-cyclin A. The conditions noted are these: read-out: Kinase Inhibition pIC50 CDK2-cyclin A (converted). As to the method:
(§1) Kinase assays. The compounds of the invention above were investigated for their ability to inhibit the enzymatic activity of various protein kinases (Table 2). This was achieved by measurement of incorporation of radioactive phosphate from ATP into appropriate polypeptide substrates. Recombinant protein kinases and kinase complexes were produced or obtained commercially. Assays were performed using 96-well plates and appropriate assay buffers (typically 25 mM β-glycerophosphate, 20 mM MOPS, 5 mM EGTA, 1 mM DTT, 1 mM […], pH 7.4), into which were added 2-4 μg of active enzyme with appropriate substrates. The reactions were initiated by addition of Mg/ATP mix (15 mM MgCl2+100 μM ATP with 30-50 kBq per well of [γ-^32P]-ATP) and mixtures incubated as required at 30° C. Reactions were stopped on ice, followed by filtration through p81 filterplates or GF/C filterplates (Whatman Polyfiltronics, Kent, UK). After washing 3 times with 75 mM aq orthophosphoric acid, plates were dried, scintillant added and incorporated radioactivity measured in a scintillation counter (TopCount, Packard Instruments, Pangbourne, Berks, UK). Compounds for kinase assay were made up as 10 mM stocks in DMSO and diluted into 10% DMSO in assay buffer.

Test [2] addresses CDK9/cyclin T1 (Homo sapiens, UniProt P50750). Briefly: CDK 9 assay (CTD peptide substrate). The settings on record: read-out: Kinase Inhibition pIC50 CDK9-cyclin T1 (converted). The procedure, abridged: (§2)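 Radiometric assay: recombinant human CDK9/cyclin T1 or CDK7/cyclin H with biotinylated CTD heptapeptide-repeat substrate, 100 μM ATP with [γ-32P]ATP, 15 mM MgCl2, MOPS pH 7.2, 45 min at 30 °C. Avidin-captured substrate filtered onto P81; 32P incorporation counted by scintillation.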

In test [3] the target is CDK2-cycline E (Homo sapiens, UniProt P24941). Description: Kinase assay (radioactive phosphate incorporation), CDK2-cyclin E. The settings on record: read-out: Kinase Inhibition pIC50 CDK2-cycline E (converted). The procedure, abridged:
(§3)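 Recombinant kinases (2-4 μg) with polypeptide substrates in pH 7.4 MOPS/β-glycerophosphate buffer. Reactions started with 15 mM MgCl2 + 100 μM ATP containing [γ-32P]-ATP and incubated at 30° C. Filter-bound incorporated radioactivity counted by scintillation; compounds diluted from DMSO stocks into 10% DMSO buffer.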

The target of test [4] is CDK1-cyclin B (Homo sapiens, UniProt P06493). Briefly: Kinase assay (radioactive phosphate incorporation), CDK1-cyclin B. The conditions noted are these: read-out: Kinase Inhibition pIC50 CDK1-cyclin B (converted). As to the method: as §1
Sequence of CDK1-cyclin B (P06493 whole entry): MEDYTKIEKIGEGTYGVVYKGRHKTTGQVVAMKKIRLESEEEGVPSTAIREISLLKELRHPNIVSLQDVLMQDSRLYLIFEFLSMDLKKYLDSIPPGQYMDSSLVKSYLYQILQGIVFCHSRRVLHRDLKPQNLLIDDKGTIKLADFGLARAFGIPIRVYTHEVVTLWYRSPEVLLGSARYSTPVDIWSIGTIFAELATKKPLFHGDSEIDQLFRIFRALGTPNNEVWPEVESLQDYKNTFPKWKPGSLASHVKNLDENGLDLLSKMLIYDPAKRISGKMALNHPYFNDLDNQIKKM
Sequence of CDK1-cyclin B (P14635 whole entry partner): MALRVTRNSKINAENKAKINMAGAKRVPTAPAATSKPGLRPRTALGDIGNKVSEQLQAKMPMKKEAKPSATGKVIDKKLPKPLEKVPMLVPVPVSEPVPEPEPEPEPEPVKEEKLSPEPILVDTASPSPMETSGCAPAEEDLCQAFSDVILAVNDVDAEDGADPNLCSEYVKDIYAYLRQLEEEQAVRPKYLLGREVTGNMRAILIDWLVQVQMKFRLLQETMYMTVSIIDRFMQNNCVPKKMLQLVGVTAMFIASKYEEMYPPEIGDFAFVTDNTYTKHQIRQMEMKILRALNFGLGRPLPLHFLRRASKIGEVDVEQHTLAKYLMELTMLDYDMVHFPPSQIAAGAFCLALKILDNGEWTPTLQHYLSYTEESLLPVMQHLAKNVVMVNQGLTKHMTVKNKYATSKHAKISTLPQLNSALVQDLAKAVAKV
Test [5] addresses CDK7/cyclin H (Homo sapiens, UniProt P50613). Briefly: CDK 7 assay (CTD peptide substrate). The conditions noted are these: read-out: Kinase Inhibition pIC50 CDK7-cyclin H (converted). The procedure, abridged:
as §2

Test [6] concerns the target CDK4-cyclin D1 (Homo sapiens, UniProt P11802). Briefly: Kinase assay (radioactive phosphate incorporation), CDK4-cyclin D1. The settings on record: read-out: Kinase Inhibition pIC50 CDK4-cyclin D1 (converted). As to the method:
as §1

Test [7] has as its target T1, Flt3 (FMS-like tyrosine kinase-3) (Homo sapiens, UniProt P36888).
T1 sequence (P36888 27-993): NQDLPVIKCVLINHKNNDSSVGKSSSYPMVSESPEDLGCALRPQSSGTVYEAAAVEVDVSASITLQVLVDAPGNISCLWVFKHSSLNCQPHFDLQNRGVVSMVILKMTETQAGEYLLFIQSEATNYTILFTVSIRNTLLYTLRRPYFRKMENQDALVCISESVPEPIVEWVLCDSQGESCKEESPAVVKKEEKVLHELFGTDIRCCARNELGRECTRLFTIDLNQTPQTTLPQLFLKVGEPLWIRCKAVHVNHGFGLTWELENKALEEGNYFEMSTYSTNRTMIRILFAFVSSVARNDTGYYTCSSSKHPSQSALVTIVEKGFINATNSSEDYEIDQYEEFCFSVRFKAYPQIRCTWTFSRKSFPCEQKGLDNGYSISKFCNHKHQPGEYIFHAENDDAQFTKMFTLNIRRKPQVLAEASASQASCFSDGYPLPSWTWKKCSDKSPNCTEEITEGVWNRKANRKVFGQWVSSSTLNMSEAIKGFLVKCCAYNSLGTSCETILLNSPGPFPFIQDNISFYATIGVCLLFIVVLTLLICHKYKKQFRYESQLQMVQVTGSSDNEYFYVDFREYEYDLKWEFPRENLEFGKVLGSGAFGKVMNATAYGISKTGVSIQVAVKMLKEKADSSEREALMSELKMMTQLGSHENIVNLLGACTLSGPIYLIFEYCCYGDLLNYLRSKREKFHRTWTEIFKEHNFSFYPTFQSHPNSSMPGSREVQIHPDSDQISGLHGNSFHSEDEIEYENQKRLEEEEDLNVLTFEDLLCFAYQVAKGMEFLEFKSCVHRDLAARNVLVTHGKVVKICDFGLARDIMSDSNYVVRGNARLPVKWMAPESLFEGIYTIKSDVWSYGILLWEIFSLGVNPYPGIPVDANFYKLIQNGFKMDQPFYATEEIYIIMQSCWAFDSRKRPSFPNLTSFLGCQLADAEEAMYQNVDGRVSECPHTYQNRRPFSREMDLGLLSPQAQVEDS
Briefly: Kinase assay (radioactive phosphate incorporation), Flt3. The settings on record: pIC50 is -log(IC50, M), read-out: Kinase Inhibition pIC50 Flt3 (converted). The procedure, abridged:
as §3

In test [8] the target is GSK3b (Homo sapiens, UniProt P49841). Description: Kinase assay (radioactive phosphate incorporation), GSK-3b. The conditions noted are these: read-out: Kinase Inhibition pIC50 GSK-3b (converted). As to the method:
as §1

Test [9] deals with T2, Aurora A kinase (Homo sapiens, UniProt O14965).
T2 construct: purchased
T2 sequence (O14965 1-403): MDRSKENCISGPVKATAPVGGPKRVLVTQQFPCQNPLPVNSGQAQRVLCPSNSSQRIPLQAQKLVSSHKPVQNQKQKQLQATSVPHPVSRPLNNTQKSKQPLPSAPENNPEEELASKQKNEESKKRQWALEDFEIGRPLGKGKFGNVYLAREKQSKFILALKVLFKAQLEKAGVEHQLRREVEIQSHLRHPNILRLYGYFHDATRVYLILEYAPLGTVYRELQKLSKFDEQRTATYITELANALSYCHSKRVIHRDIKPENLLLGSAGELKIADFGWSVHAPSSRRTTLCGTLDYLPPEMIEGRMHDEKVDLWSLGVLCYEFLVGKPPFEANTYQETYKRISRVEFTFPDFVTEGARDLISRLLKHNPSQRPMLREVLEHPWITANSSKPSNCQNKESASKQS
Briefly: Aurora-A (human) kinase assay (Kemptide substrate). The conditions noted are these: pIC50 is -log(IC50, M); 15 μM ATP; read-out: Kinase Inhibition pIC50 Aurora A kinase (converted). The method in brief:
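Radiometric filter-binding assay: commercial aurora-A kinase (5-10 ng) with 200 μM Kemptide in MOPS/EDTA pH 7.0, started with 10 mM Mg acetate and 15 μM ATP plus [γ-33P]-ATP. Incubated 40 min at room temperature, stopped with phosphoric acid, incorporated 33P counted by scintillation.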

Sequence of CDK7/cyclin H (P50613 whole entry): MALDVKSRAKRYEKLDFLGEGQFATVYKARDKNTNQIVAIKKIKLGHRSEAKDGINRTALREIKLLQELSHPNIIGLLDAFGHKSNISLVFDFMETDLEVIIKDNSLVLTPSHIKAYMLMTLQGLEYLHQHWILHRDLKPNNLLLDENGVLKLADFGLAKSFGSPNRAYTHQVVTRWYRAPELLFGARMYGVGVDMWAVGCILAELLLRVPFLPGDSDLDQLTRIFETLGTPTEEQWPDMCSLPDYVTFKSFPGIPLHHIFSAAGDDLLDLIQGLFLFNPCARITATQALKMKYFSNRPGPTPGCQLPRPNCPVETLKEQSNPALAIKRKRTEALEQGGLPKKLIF
Sequence of CDK7/cyclin H (P51946 whole entry partner): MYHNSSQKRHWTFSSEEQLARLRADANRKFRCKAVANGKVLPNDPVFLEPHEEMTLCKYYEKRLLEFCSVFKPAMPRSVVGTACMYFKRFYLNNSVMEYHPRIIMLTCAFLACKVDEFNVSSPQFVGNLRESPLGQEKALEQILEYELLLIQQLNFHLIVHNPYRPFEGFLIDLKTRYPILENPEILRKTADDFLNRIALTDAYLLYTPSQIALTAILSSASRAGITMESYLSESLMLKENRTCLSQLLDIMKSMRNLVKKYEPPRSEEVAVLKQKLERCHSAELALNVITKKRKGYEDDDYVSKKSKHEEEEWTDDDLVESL
Sequence of CDK9/cyclin T1 (P50750 whole entry): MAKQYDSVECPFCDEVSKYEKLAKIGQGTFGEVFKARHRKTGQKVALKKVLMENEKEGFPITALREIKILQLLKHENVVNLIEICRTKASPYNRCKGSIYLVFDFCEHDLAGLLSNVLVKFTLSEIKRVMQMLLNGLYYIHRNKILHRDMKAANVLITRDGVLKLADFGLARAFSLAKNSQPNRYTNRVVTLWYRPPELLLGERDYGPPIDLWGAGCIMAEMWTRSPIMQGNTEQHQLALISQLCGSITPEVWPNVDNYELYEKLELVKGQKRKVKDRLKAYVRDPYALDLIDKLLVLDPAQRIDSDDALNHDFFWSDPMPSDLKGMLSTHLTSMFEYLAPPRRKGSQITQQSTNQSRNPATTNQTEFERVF
Sequence of CDK9/cyclin T1 (O60563 whole entry partner): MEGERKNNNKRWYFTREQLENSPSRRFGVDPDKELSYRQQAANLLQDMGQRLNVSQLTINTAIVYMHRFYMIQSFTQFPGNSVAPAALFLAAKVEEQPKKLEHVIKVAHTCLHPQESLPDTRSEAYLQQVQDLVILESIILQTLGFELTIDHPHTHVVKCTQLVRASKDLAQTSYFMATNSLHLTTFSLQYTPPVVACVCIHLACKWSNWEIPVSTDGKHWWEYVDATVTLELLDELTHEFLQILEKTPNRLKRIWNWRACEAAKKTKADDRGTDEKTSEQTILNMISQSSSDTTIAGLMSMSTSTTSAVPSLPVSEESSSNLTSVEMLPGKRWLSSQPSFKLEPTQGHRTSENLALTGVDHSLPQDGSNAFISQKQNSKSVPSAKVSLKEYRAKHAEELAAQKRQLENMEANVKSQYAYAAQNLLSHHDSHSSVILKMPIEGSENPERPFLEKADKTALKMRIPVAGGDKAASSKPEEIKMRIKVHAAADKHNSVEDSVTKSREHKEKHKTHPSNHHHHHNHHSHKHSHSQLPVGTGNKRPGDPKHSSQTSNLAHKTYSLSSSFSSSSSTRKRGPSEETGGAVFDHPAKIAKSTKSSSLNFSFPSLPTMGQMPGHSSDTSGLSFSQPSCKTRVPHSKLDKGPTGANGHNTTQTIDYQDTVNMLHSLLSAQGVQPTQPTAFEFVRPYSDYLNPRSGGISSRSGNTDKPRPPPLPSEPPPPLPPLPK
Sequence of CDK4-cyclin D1 (P11802 whole entry): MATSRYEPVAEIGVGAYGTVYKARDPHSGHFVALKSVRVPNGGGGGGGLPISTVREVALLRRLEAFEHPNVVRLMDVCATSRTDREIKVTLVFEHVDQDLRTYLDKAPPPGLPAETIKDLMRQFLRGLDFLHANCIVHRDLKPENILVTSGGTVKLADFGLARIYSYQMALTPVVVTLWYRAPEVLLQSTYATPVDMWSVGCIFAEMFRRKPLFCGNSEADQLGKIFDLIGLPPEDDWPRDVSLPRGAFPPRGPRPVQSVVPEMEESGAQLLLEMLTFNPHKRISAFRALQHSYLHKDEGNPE
Sequence of CDK4-cyclin D1 (P24385 whole entry partner): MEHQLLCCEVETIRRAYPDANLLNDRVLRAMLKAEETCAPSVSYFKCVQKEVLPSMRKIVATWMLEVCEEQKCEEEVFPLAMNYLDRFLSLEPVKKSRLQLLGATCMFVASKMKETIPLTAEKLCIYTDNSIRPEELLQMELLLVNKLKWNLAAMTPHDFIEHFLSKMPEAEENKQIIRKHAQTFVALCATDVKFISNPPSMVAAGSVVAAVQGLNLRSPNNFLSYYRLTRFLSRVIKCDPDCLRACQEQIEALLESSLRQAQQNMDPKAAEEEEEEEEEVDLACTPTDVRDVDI
Sequence of GSK3b (P49841 whole entry, species assumed): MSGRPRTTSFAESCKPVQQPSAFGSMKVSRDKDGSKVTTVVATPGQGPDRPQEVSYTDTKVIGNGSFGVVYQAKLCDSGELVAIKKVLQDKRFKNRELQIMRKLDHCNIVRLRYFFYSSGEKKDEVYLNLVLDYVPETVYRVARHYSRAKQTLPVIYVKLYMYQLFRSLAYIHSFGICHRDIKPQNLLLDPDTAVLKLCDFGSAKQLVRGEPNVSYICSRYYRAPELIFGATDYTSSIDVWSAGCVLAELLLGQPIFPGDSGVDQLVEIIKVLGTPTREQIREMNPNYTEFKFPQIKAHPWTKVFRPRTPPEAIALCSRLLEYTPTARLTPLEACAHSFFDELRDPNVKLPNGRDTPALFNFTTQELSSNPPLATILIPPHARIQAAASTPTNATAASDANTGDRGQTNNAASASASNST

`CCOC(=O)Cc1cccc(NS(=O)(=O)c2ccc(Nc3nccc(-c4sc(NC)nc4C)n3)cc2)c1` [Compound 62, (3-{4-[4-(4-Methyl-2-methylamino-thiazol-5-yl)-pyrimidin-2-ylamino]-benzenesulfonylamino}-phenyl)-acetic acid ethyl ester]: the IC50 in [1] is 3160 nM; in test [2], 6310 nM; in test [3] it was 79.4 nM.
As for `CNc1nc(C)c(-c2ccnc(Nc3cccc(CC(=O)OCCOC)c3)n2)s1` [Compound 44, {3-[4-(4-Methyl-2-methylamino-thiazol-5-yl)-pyrimidin-2-ylamino]-phenyl}-acetic acid 2-methoxy-ethyl ester], the IC50 was 2000 nM in [4]; 2000 nM in test [1]; 3160 nM in test [5]; 2000 nM in [6]; 63.1 nM in test [7]; 251 nM in test [2].
`CC(=O)NCc1cccc(Nc2nccc(-c3sc(-c4cccnc4)nc3C)n2)c1` [Compound 101, N-{3-[4-(4-Methyl-2-pyridin-3-yl-thiazol-5-yl)-pyrimidin-2-ylamino]-benzyl}-acetamide]: the IC50 in [4] is 3160 nM; in [5], 3980 nM; in test [6] it was 3980 nM; in [7], 316 nM; in [8] it was 7940 nM; in test [2] it was 5010 nM. The IC50 is 1260 nM in test [3] and 126 nM in test [9].
As for `CCNS(=O)(=O)c1ccc(Nc2nccc(-c3sc(C)nc3C)n2)cc1` [Compound 66, 4-[4-(2,4-Dimethyl-thiazol-5-yl)-pyrimidin-2-ylamino]-N-ethyl-benzenesulfonamide], the IC50 in test [1] is 50.1 nM; in test [3], 63.1 nM; in test [9], 316 nM.
Taken in the same sequence, the figures for `Cc1nc(C)c(-c2ccnc(Nc3ccc(S(=O)(=O)NCc4ccccc4)cc3)n2)s1` [Compound 74, N-Benzyl-4-[4-(2,4-dimethyl-thiazol-5-yl)-pyrimidin-2-ylamino]-benzenesulfonamide] were 2000 nM, 398 nM and 126 nM.
On to `Cc1nc(C)c(-c2ccnc(Nc3cccc(CNS(C)(=O)=O)c3)n2)s1` [Compound 49, N-{3-[4-(2,4-Dimethyl-thiazol-5-yl)-pyrimidin-2-ylamino]-benzyl}-methanesulfonamide], for which the IC50 in test [4] is 200 nM; in test [1] it was 158 nM; in [6], 1000 nM; in test [7], 200 nM; in test [2], 316 nM; in [3], 25.1 nM. Moreover, the IC50 in [9] was 5.01 nM.
As for `CCNc1nc(C)c(-c2ccnc(Nc3ccc(CNC(C)=O)cc3)n2)s1` [Compound 13, N-{4-[4-(2-Ethylamino-4-methyl-thiazol-5-yl)-pyrimidin-2-ylamino]-benzyl}-acetamide], the IC50 is 631 nM in test [4]; 126 nM in test [1]; 200 nM in test [5]; 63.1 nM in test [6]; 31.6 nM in test [7]; 25.1 nM in test [2]. The IC50 in [9] is 15.8 nM.
As for `CCNc1nc(C)c(-c2ccnc(Nc3ccc(S(=O)(=O)NCc4ccccc4)cc3)n2)s1` [Compound 71, N-Benzyl-4-[4-(2-ethylamino-4-methyl-thiazol-5-yl)-pyrimidin-2-ylamino]-benzenesulfonamide], the IC50 in [1] was 3160 nM; in [6] it was 7940 nM; in [2] it was 398 nM; in test [3] it was 631 nM.
Regarding `Cc1nc(N)sc1-c1ccnc(Nc2ccc(S(=O)(=O)NCc3ccccc3)cc2)n1` [Compound 73, 4-[4-(2-Amino-4-methyl-thiazol-5-yl)-pyrimidin-2-ylamino]-N-benzyl-benzenesulfonamide], the IC50 in test [4] is 100 nM; in test [1], 39.8 nM; in test [5] it was 1000 nM; in test [2], 158 nM; in test [3], 12.6 nM; in test [9] it was 316 nM.
With `CCNc1nc(C)c(-c2ccnc(Nc3ccc(N4CCN(C(C)=O)CC4)cc3)n2)s1` [Compound 58, 1-(4-{4-[4-(2-Ethylamino-4-methyl-thiazol-5-yl)-pyrimidin-2-ylamino]-phenyl}-piperazin-1-yl)-ethanone], the IC50 in [4] is 5010 nM; in test [1], 1000 nM; in [6] it was 251 nM; in [3] it was 631 nM.
With `CNc1nc(C)c(-c2ccnc(Nc3ccc(S(=O)(=O)NCc4ccccc4)cc3)n2)s1` [Compound 72, N-Benzyl-4-[4-(4-methyl-2-methylamino-thiazol-5-yl)-pyrimidin-2-ylamino]-benzenesulfonamide], the IC50 was 794 nM in test [4]; 1260 nM in test [1]; 6310 nM in test [2]; 158 nM in test [3]; 2510 nM in [9].
Turning to `CNc1nc(C)c(-c2ccnc(Nc3cc(CO)cc(CO)c3)n2)s1` [Compound 48, {3-Hydroxymethyl-5-[4-(4-methyl-2-methylamino-thiazol-5-yl)-pyrimidin-2-ylamino]-phenyl}-methanol], the IC50 was 631 nM in test [4]; 631 nM in test [1]; 631 nM in test [6]; 63.1 nM in test [7]; 251 nM in [3]; 50.1 nM in test [9].
